This note sets out measurements from patent US4673436A, “N, S containing corrosion inhibitors” (Exxon Chemical Patents Inc., priority 1986, dated 1987).

Data set [1] in a line: Corrosion wheel test, sweet-sour, all water system (3% NaCl brine, saturated CO2 + 100 ppm H2S), Table I. The following applies: 160° F., 24 hours, 3% NaCl brine only. Here is the method:
(§1) Twelve quaternary ammonium salts according to the present invention, were tested under four standard sets of corrosion wheel test conditions. These include a sweet-sour test in an all water system under a range of concentrations from 4-256 ppm (TABLE I). Tests 2 and 3 were run under sweet (TABLE III), and sour conditions (TABLE II) at low (4 ppm) and high (256 ppm) concentrations only. A film persistency test (TABLE IV) was also run for completeness of the screening sequence; however, it was not expected that these water soluble compounds would perform well under these test conditions. Due to the low solubility of some C18 derivatives, 20% activity was adopted as a standard, with the C18 compounds being submitted at 10% activity and added at double concentration to the test fluids. […] Compounds are generally water and low brine soluble, hydrocarbon dispersible with some C18 derivatives being soluble in both fresh water and hydrocarbon.
Blank weight loss: 40 ± 0.9 mg
(§2) Fluids: 3% NaCl brine only
(§3) Saturated CO2 + 100 ppm H2 S
(§4) Duplicates w/ triplicate blanks

The nature of data set [2]: Corrosion wheel test, sour (3% NaCl brine, saturated N2 + 500 ppm H2S), Table II. To be noted: 160° F., 24 hours, 3% NaCl brine only. Here is the method:
as §1
Blank weight loss: 55.8 ± 1.0 mg
as §2
Saturated N2 + 500 ppm H2 S
Duplicates and triplicate blanks

A short description of data set [3]: Inhibitor solubility test, Table V. To be noted: 20% active inhibitor added at 0.5% by volume; observed initially and after 24 hours. In kind it is physicochemical.
A short description of data set [4]: Corrosion wheel test, sweet (50-50 3% NaCl brine - Mentor, saturated CO2 only), Tables III, VI, VII. To be noted: Table VI confirmatory test, 160° F., 24 hours, saturated CO2 only.
The nature of data set [5]: Film persistent corrosion wheel test (50-50 3% NaCl brine - Mentor, saturated CO2 + 100 ppm H2S), Table IV. The following applies: 160° F., film 1 hr, rinse 1 hr, run 24 hrs, single data points. Here is the method:
as §1
Blank weight loss: 58.3 ± 3.3 mg
Film 1 hr, Rinse 1 hr, Run 24 hrs.
(§5) Fluids: 50-50 3% NaCl brine - Mentor
as §3
Single data points with triplicate blanks

Data set [6] can be described thus: Corrosion wheel test, sweet (50-50 3% NaCl brine - Mentor, saturated CO2 only), Tables III, VI, VII. To be noted: Table III, 160° F., 24 hours. Here is the method: Twelve quaternary ammonium salts according to the present invention, were tested under four standard sets of corrosion wheel test conditions. These include a sweet-sour test in an all water system under a range of concentrations from 4-256 ppm (TABLE I). Tests 2 and 3 were run under sweet (TABLE III), and sour conditions (TABLE II) at low (4 ppm) and high (256 ppm) concentrations only.
as §5, §4
Fluids: 50-50 - 3% NaCl brine - Mentor

`CCCCCCCCCCCCCCCCCC[N+](C)(C)CCCS` [Compound 6]: in data set [1], the “% Protection @ 4 ppm” value came to 11%, the “% Protection @ 8 ppm” value worked out at 26%, the “% Protection @ 16 ppm” value worked out at 59% and the “% Protection @ 256 ppm” value was determined as 75%. Besides, in data set [2], the “% Protection @ 4 ppm” value was found to be 14% and the “% Protection @ 256 ppm” value is listed as 71%. In data set [3], the “Solubility in 5% NaCl brine” value was “insol”, the “Solubility in aromatic naphtha” value was “disp”, the “Solubility in distilled water” value is reported as “sol” and the Solubility in kerosene entry is recorded as “disp”. Besides, in data set [4], the “% Protection @ 2 ppm” value was 30%, the “% Protection @ 4 ppm” value is on record as 74%, the “% Protection @ 8 ppm” value is reported as 75% and the “% Protection @ 32 ppm” value stood at 80%. For the same compound, the “% Protection @ 128 ppm” value in data set [4] was found to be 85%. The “% Protection @ 10,000 ppm” value in data set [5] came to 71%. Moreover, the “% Protection @ 4 ppm” value in data set [6] stood at 83%.
Turning to `CCCCCCCCCCCCSCC[N+](C)(C)C` [Compound 8], in data set [1], the “% Protection @ 4 ppm” value worked out at 7%, the “% Protection @ 8 ppm” value was found to be 13%, the “% Protection @ 16 ppm” value is 23% and the “% Protection @ 256 ppm” value is recorded as 81%. In data set [2], the “% Protection @ 4 ppm” value stood at 3% and the “% Protection @ 256 ppm” value worked out at 78%. In data set [3], the “Solubility in 5% NaCl brine” value was “sol”, the “Solubility in aromatic naphtha” value is “disp”, the “Solubility in distilled water” value is “sol” and the Solubility in kerosene result was “disp”. In data set [4], the “% Protection @ 2 ppm” value came to 9%, the “% Protection @ 4 ppm” value is listed as 19%, the “% Protection @ 8 ppm” value is 18% and the “% Protection @ 32 ppm” value turned out to be 62%. In data set [4], the “% Protection @ 128 ppm” value was found to be 82%. In addition, the “% Protection @ 10,000 ppm” value in data set [5] was 19%. Moreover, the “% Protection @ 4 ppm” value in data set [6] is 14%. Also, the “% Protection @ 256 ppm” value in data set [6] (256 ppm) stood at 76%.
For the compound `CCCCCCCCSCCC[N+](C)(C)C` [Compound 10], in data set [1], the “% Protection @ 4 ppm” value came out at 18%, the “% Protection @ 8 ppm” value came to 23%, the “% Protection @ 16 ppm” value was 24% and the “% Protection @ 256 ppm” value was determined as 50%. In addition, in data set [2], the “% Protection @ 4 ppm” value came to 12% and the “% Protection @ 256 ppm” value is 75%. Also, in data set [3], the “Solubility in 5% NaCl brine” value is “sol”, the “Solubility in aromatic naphtha” value is given as “disp”, the “Solubility in distilled water” value was “sol” and the Solubility in kerosene result was “disp”. Further, in data set [4], the “% Protection @ 2 ppm” value is on record as 10%, the “% Protection @ 4 ppm” value is 12%, the “% Protection @ 8 ppm” value is reported as 20% and the “% Protection @ 32 ppm” value was 25%. Also, in data set [4], the “% Protection @ 128 ppm” value was 51%. In addition, the “% Protection @ 10,000 ppm” value in data set [5] was determined as 8%. In addition, the “% Protection @ 4 ppm” value in data set [6] was found to be 81%.
